# Assay results: PubChem BioAssay (NCI)
#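 Following 48 hours of exposure in 96-well plates, responses at five concentrations were used to interpolate endpoints linearly. Abbreviation: GI50, concentration required for 50% inhibition of growth. TGI: concentration producing complete growth inhibition.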
# Test system: EKVX NSCLC
# Test: growth of human tumour cells (NCI), 48 h
SMILES,TGI [µM],GI50 [µM]
CCCCCCCCCCCOc1ccc(C(=O)C(=O)c2ccc(OCCCCCCCCCCC)c(OCCCCCCCCCCC)c2)cc1OCCCCCCCCCCC,> 100,
COc1cc(CNc2cnc3cc(N)cc(N)c3n2)cc(OC)c1,67.4,27.3
CCCCC(=O)OCC(=O)[C@]1(O)Cc2c(O)c3c(c(O)c2[C@@H](OC2CC(NC(=O)C(F)(F)F)C(O)C(C)O2)C1)C(=O)c1c(OC)cccc1C3=O (stereo partly specified),13.5,
O=C(O)CCc1coc2ccc(O)cc12,> 100,
Clc1cc2nsnc2c(Cl)n1,> 100,
N#CC1C(C#N)C2(c3ccccc3)C(c3ccccc3)=NN(c3ccccc3)CC12 (stereo unspecified),> 100,
COc1cc(Cc2cnc(/N=C3\C(=O)N(CN4CCN(c5c(F)cc6c(=O)c(C(=O)O)cn(C7CC7)c6c5OC)CC4C)c4ccc(F)cc43)nc2N)cc(OC)c1OC (stereo unspecified),56.6,21.9
C=C(CN1CCN(c2ccc(Cl)cc2F)CC1)c1ccc(C(=O)Nc2ccccc2N)cc1,> 100,11.5
Cc1cccc2c(=O)cc(-c3ccccc3)[nH]c12,> 100,
COC(CN1C(=O)c2cccc3cccc(c23)C1=O)OC,> 100,
O=C(Nc1ccccc1)NS(=O)(=O)c1ccc(-n2nc3c(c2-c2cccs2)Cc2ccccc2-3)cc1,87.2,26.1
CCCCOC(=O)C1OC(O[C@H]2CCC3(C)C(CCC4(C)C3CC=C3C5CC(C)(C)CCC5(C(=O)O)CC[C@]34C)C2(C)C)C(OC2OC(CO)C(O)C(O)C2O)C(OC2OC(CO)C(O)C(O)C2O)C1O (stereo partly specified),49.7,24.4
Cc1nc2ccccc2c(=O)n1-c1ccccc1I,> 100,
Cc1ccc2c(=O)cc(-c3ccc(F)cc3)[nH]c2n1,> 100,
CC(=O)NNc1nc(C)c(C(=O)NNC(=O)C(=O)Nc2ccc(Cl)cc2)s1,> 100,
CC1(C)CCc2c(c3c(c4c(=O)c(O)c(-c5ccc(O)cc5)oc24)OC(C)(C)CC3)O1,> 100,34.5

SMILES,TGI [µM],GI50 [µM]
CN/N=C(/Cc1occc(=O)c1O)C(=O)Nc1ccccc1C,> 100,
Cc1cc(I)cc(CN(C)CCCCN2CCCCC2)c1O,87.3,20.9
O=C(N/C(=C\c1ccc(/C=C(\NC(=O)c2ccccc2)c2nc3cc([N+](=O)[O-])ccc3[nH]2)cc1)c1nc2cc([N+](=O)[O-])ccc2[nH]1)c1ccccc1,> 100,
COc1ccc(C(=O)Cn2c(C(=O)c3ccccc3)nc(-c3ccc(OC)cc3)c2-c2ccc(OC)cc2)cc1,> 100,> 100
O=C1c2ccccc2C2C1N2C(=O)C(F)(F)F (stereo unspecified),> 100,
CC1=C(C(=O)NCc2ccccc2)C(/C=C/c2ccccc2)C(C(=O)NCc2ccccc2)=C(C)N1,> 100,
N#CCCN(CCC#N)c1ccc(/C=C2\N=C(c3cc([N+](=O)[O-])ccc3Cl)OC2=O)cc1,> 100,
CC1=C(C(=O)Nc2ccc(Cl)c(Cl)c2)C(c2cccc(Oc3ccccc3)c2)NC(=S)N1 (stereo unspecified),15,7.55
COc1cc(-c2nn(-c3ccc(NC(=O)c4ccc(Cl)c(C(F)(F)F)c4)cc3)cc2-c2ccncc2)ccc1Cl,> 65.1,2.18
CN(C)CC[N+]1=Nc2cccc3cccc(c23)N1,> 100,
Cc1cc(C)nc(NS(=O)(=O)c2ccc(NC(=O)c3ccc(Cl)c4c(Nc5ccc(S(=O)(=O)Nc6nc(C)cc(C)n6)cc5)c5ccccc5nc34)cc2)n1,88.8,
N#CC(c1ccc(Cl)cc1)c1cccc(C(C#N)c2ccc(Cl)cc2)n1 (stereo unspecified),> 100,
CCCCCN(CCCCC)CCCNc1c2c(nc3ccc(Cl)cc13)CCCC2,13.6,2.78
Cn1c2ccccc2c2c(Nc3ccccc3)c3ccccc3nc21,51.1,14.3
Cc1ccc(NC2=C(Cl)C(=O)N(Cc3ccccc3)C2=O)cc1O,52.6,17.8

# Test system: CCRF-CEM leukemia
# Test: growth of human tumour cells (NCI), 48 h
SMILES,TGI [µM],GI50 [µM]
NNC(=O)Nc1cccnc1,> 100,
COc1ccc(-c2nc3sccn3c2/C(N)=N/C(=N)N)cc1OC,> 100,38.4
CCCCCCCCCCCOc1ccc(C(=O)C(=O)c2ccc(OCCCCCCCCCCC)c(OCCCCCCCCCCC)c2)cc1OCCCCCCCCCCC,> 100,
COc1cc(CNc2cnc3cc(N)cc(N)c3n2)cc(OC)c1,52.3,18.5
CCCCC(=O)OCC(=O)[C@]1(O)Cc2c(O)c3c(c(O)c2[C@@H](OC2CC(NC(=O)C(F)(F)F)C(O)C(C)O2)C1)C(=O)c1c(OC)cccc1C3=O (stereo partly specified),> 73.6,
O=C(O)CCc1coc2ccc(O)cc12,> 100,
Clc1cc2nsnc2c(Cl)n1,27.1,
N#CC1C(C#N)C2(c3ccccc3)C(c3ccccc3)=NN(c3ccccc3)CC12 (stereo unspecified),> 100,
COc1cc(Cc2cnc(/N=C3\C(=O)N(CN4CCN(c5c(F)cc6c(=O)c(C(=O)O)cn(C7CC7)c6c5OC)CC4C)c4ccc(F)cc43)nc2N)cc(OC)c1OC (stereo unspecified),4.26,1.3
C=C(CN1CCN(c2ccc(Cl)cc2F)CC1)c1ccc(C(=O)Nc2ccccc2N)cc1,> 100,0.524
Cc1cccc2c(=O)cc(-c3ccccc3)[nH]c12,> 100,
COC(CN1C(=O)c2cccc3cccc(c23)C1=O)OC,> 100,
O=C(Nc1ccccc1)NS(=O)(=O)c1ccc(-n2nc3c(c2-c2cccs2)Cc2ccccc2-3)cc1,> 100,13.6
Cc1nc2ccccc2c(=O)n1-c1ccccc1I,> 100,
Cc1ccc2c(=O)cc(-c3ccc(F)cc3)[nH]c2n1,> 100,
CC(=O)NNc1nc(C)c(C(=O)NNC(=O)C(=O)Nc2ccc(Cl)cc2)s1,> 100,
CC1(C)CCc2c(c3c(c4c(=O)c(O)c(-c5ccc(O)cc5)oc24)OC(C)(C)CC3)O1,> 100,> 100
CN/N=C(/Cc1occc(=O)c1O)C(=O)Nc1ccccc1C,> 100,
O=C(N/C(=C\c1ccc(/C=C(\NC(=O)c2ccccc2)c2nc3cc([N+](=O)[O-])ccc3[nH]2)cc1)c1nc2cc([N+](=O)[O-])ccc2[nH]1)c1ccccc1,> 100,
O=C1c2ccccc2C2C1N2C(=O)C(F)(F)F (stereo unspecified),70.9,
CC1=C(C(=O)NCc2ccccc2)C(/C=C/c2ccccc2)C(C(=O)NCc2ccccc2)=C(C)N1,> 100,
COc1cc(-c2nn(-c3ccc(NC(=O)c4ccc(Cl)c(C(F)(F)F)c4)cc3)cc2-c2ccncc2)ccc1Cl,> 100,2.5
CN(C)CC[N+]1=Nc2cccc3cccc(c23)N1,> 67.3,
COc1ccc2c(C3=C(c4cn(C)c5ccccc45)C(=O)NC3=O)cn(C)c2c1,> 25,0.0961
Cc1cc(C)nc(NS(=O)(=O)c2ccc(NC(=O)c3ccc(Cl)c4c(Nc5ccc(S(=O)(=O)Nc6nc(C)cc(C)n6)cc5)c5ccccc5nc34)cc2)n1,> 100,
N#CC(c1ccc(Cl)cc1)c1cccc(C(C#N)c2ccc(Cl)cc2)n1 (stereo unspecified),> 100,
O=C1/C(=C/c2ccccc2)CN(C(=O)C(Cl)(Cl)Cl)C/C1=C\c1ccccc1,3.86,
Cc1ccc(NC2=C(Cl)C(=O)N(Cc3ccccc3)C2=O)cc1O,> 100,29.6

# Test system: NCI-H522 lung
# Test: growth of human tumour cells (NCI), 48 h
SMILES,TGI [µM],GI50 [µM]
CCN(CCO)CC1CCCC2CCCCC21 (stereo unspecified),> 100,
NNC(=O)Nc1cccnc1,> 100,
COc1ccc(-c2nc3sccn3c2/C(N)=N/C(=N)N)cc1OC,> 100,7.85
CCCCCCCCCCCOc1ccc(C(=O)C(=O)c2ccc(OCCCCCCCCCCC)c(OCCCCCCCCCCC)c2)cc1OCCCCCCCCCCC,> 100,
COc1cc(CNc2cnc3cc(N)cc(N)c3n2)cc(OC)c1,78.2,23.8
CCCCC(=O)OCC(=O)[C@]1(O)Cc2c(O)c3c(c(O)c2[C@@H](OC2CC(NC(=O)C(F)(F)F)C(O)C(C)O2)C1)C(=O)c1c(OC)cccc1C3=O (stereo partly specified),3.9,
Clc1cc2nsnc2c(Cl)n1,36.7,
COc1cc(Cc2cnc(/N=C3\C(=O)N(CN4CCN(c5c(F)cc6c(=O)c(C(=O)O)cn(C7CC7)c6c5OC)CC4C)c4ccc(F)cc43)nc2N)cc(OC)c1OC (stereo unspecified),> 100,63.5
C=C(CN1CCN(c2ccc(Cl)cc2F)CC1)c1ccc(C(=O)Nc2ccccc2N)cc1,5.95,2.19
O=C(Nc1ccccc1)NS(=O)(=O)c1ccc(-n2nc3c(c2-c2cccs2)Cc2ccccc2-3)cc1,> 100,31.5
CCCCOC(=O)C1OC(O[C@H]2CCC3(C)C(CCC4(C)C3CC=C3C5CC(C)(C)CCC5(C(=O)O)CC[C@]34C)C2(C)C)C(OC2OC(CO)C(O)C(O)C2O)C(OC2OC(CO)C(O)C(O)C2O)C1O (stereo partly specified),> 100,43.9
Cc1nc2ccccc2c(=O)n1-c1ccccc1I,> 100,
Cc1ccc2c(=O)cc(-c3ccc(F)cc3)[nH]c2n1,84.7,
CC(=O)NNc1nc(C)c(C(=O)NNC(=O)C(=O)Nc2ccc(Cl)cc2)s1,> 100,
CC1(C)CCc2c(c3c(c4c(=O)c(O)c(-c5ccc(O)cc5)oc24)OC(C)(C)CC3)O1,> 100,> 100
CN/N=C(/Cc1occc(=O)c1O)C(=O)Nc1ccccc1C,> 100,
Cc1cc(I)cc(CN(C)CCCCN2CCCCC2)c1O,38.2,17.2
